Assay [1] has as its target GABA-A receptor; alpha-6/beta-3/gamma-2 (Homo sapiens, UniProt P18507+P28472+Q16445). The experiment in a line: Displacement of [3H]-Ro 15-4513 from Homo sapiens (human) recombinant GABAA alpha6beta3gamma2 receptor expressed in Ltk- cells after 1 hr by liquid scintillation counting. It is filed as cell-based. For orientation: In a radioligand displacement assay an active substance lowers the binding of a labelled ligand.

Assay [2] deals with T1, GABA-A receptor; alpha-1/beta-3/gamma-2 (Homo sapiens, UniProt P14867+P18507+P28472).
T1 sequence (P14867 whole entry): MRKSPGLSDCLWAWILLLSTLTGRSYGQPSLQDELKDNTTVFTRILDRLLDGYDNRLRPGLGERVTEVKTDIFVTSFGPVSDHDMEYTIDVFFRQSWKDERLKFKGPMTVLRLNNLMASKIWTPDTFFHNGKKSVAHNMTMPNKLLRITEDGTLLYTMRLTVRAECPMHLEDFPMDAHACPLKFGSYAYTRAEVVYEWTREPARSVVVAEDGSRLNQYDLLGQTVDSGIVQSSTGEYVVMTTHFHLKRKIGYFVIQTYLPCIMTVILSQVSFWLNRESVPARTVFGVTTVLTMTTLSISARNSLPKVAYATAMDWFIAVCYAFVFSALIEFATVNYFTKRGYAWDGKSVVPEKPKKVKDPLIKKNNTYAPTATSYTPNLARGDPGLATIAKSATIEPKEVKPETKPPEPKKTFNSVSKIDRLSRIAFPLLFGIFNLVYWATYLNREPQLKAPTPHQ
T1 sequence (P18507 whole entry): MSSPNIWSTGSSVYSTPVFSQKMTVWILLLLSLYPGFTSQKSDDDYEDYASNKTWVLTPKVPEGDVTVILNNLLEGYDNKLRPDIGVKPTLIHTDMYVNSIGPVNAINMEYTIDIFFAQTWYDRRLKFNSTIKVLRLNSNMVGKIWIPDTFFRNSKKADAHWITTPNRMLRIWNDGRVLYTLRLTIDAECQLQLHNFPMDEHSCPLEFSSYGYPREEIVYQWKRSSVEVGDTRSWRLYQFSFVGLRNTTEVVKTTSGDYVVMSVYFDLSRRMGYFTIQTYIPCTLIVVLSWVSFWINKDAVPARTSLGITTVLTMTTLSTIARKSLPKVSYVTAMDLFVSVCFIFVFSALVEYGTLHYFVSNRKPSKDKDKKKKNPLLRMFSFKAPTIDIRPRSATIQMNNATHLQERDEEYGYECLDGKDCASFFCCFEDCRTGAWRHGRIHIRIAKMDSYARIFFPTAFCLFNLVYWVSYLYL
T1 sequence (P28472 whole entry): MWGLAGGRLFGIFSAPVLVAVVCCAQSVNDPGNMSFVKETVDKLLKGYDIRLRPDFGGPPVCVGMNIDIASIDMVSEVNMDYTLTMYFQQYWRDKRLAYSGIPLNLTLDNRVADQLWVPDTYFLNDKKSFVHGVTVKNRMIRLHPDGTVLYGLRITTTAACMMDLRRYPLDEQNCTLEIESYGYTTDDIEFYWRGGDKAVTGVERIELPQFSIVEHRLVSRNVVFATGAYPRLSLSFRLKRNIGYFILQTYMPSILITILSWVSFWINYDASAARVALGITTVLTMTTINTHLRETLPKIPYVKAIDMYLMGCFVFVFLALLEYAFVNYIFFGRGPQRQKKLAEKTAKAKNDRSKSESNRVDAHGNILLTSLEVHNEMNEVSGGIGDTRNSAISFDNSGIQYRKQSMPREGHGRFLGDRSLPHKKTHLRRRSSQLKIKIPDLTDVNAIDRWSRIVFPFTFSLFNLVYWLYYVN
The experiment in a line: Displacement of [3H]-Ro 15-1788 from Homo sapiens (human) recombinant GABAA alpha1beta3gamma2 receptor expressed in Ltk- cells after 1 hr by liquid scintillation counting. The format is cell-based.

Assay [3] is filed under the species Homo sapiens. The experiment in a line: Selectivity ratio of Ki for Homo sapiens (human) recombinant GABAA alpha1beta3gamma2 receptor to Ki for Homo sapiens (human) recombinant GABAA alpha5beta3gamma2 receptor.
In assay [4] the target is T2, GABA-A receptor; alpha-3/beta-3/gamma-2 (Homo sapiens, UniProt P18507+P28472+P34903).
T2 sequence (P18507 whole entry): T1 sequence (P18507 whole entry)
T2 sequence (P28472 whole entry): T1 sequence (P28472 whole entry)
T2 sequence (P34903 whole entry): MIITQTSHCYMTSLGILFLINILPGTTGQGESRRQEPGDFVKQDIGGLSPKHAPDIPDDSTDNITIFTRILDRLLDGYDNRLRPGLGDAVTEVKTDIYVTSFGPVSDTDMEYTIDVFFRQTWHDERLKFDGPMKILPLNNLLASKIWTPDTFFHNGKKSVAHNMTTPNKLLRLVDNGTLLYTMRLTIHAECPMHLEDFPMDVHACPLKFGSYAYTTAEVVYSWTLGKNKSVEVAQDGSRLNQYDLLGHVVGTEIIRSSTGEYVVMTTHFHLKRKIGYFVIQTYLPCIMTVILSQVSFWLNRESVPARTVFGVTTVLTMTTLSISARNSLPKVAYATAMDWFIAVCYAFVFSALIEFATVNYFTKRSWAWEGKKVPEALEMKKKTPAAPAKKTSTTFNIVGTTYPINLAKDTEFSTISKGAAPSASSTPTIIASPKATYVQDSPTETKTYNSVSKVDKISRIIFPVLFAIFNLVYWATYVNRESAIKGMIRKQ
The experiment in a line: Displacement of [3H]-Ro 15-1788 from Homo sapiens (human) recombinant GABAA alpha3beta3gamma2 receptor expressed in Ltk- cells after 1 hr by liquid scintillation counting. The format is cell-based.

The target of assay [5] is T3, GABA-A receptor; alpha-2/beta-3/gamma-2 (Homo sapiens, UniProt P18507+P28472+P47869).
T3 sequence (P18507 whole entry): T1 sequence (P18507 whole entry)
T3 sequence (P28472 whole entry): T1 sequence (P28472 whole entry)
T3 sequence (P47869 whole entry): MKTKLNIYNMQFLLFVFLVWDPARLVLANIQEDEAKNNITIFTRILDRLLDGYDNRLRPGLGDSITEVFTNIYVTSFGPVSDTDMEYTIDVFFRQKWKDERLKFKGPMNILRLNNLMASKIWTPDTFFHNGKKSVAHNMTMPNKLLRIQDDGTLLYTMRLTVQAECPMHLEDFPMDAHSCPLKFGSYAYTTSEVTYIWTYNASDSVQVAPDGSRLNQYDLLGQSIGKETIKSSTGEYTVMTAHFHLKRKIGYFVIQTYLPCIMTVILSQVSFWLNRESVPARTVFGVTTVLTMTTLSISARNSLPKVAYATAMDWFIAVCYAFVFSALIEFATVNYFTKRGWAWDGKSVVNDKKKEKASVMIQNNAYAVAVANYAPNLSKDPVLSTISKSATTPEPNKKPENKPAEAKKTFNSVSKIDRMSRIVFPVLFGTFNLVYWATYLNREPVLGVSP
The experiment in a line: Displacement of [3H]-Ro 15-1788 from Homo sapiens (human) recombinant GABAA alpha2beta3gamma2 receptor expressed in Ltk- cells after 1 hr by liquid scintillation counting. The format is cell-based.

In assay [6] the target is GABA A receptor alpha-4/beta-3/gamma-2 (Homo sapiens, UniProt P18507+P28472+P48169). The experiment in a line: Displacement of [3H]-Ro 15-4513 from Homo sapiens (human) recombinant GABAA alpha4beta3gamma2 receptor expressed in Ltk- cells after 1 hr by liquid scintillation counting. The format is cell-based.
GABA A receptor alpha-4/beta-3/gamma-2, sequence (P48169 whole entry, one chain of several): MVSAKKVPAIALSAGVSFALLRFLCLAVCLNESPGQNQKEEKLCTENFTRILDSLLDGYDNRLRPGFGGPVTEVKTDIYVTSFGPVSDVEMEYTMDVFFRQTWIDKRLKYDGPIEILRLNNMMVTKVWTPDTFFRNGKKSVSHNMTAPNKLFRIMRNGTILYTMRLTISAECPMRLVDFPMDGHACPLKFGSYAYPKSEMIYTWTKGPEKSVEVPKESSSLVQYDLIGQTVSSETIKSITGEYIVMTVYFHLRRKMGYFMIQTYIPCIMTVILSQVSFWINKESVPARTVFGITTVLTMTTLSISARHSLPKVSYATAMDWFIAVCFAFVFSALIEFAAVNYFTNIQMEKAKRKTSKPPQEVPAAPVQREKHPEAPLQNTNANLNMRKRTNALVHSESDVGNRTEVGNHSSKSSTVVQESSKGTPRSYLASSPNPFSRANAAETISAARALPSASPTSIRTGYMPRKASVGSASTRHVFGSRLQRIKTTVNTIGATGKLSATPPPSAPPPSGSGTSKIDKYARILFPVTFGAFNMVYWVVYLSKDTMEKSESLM
For assay [7], the target named is T4, GABA-A receptor; alpha-5/beta-3/gamma-2 (Homo sapiens, UniProt P18507+P28472+P31644).
T4 sequence (P18507 whole entry): T1 sequence (P18507 whole entry)
T4 sequence (P28472 whole entry): T1 sequence (P28472 whole entry)
T4 sequence (P31644 whole entry): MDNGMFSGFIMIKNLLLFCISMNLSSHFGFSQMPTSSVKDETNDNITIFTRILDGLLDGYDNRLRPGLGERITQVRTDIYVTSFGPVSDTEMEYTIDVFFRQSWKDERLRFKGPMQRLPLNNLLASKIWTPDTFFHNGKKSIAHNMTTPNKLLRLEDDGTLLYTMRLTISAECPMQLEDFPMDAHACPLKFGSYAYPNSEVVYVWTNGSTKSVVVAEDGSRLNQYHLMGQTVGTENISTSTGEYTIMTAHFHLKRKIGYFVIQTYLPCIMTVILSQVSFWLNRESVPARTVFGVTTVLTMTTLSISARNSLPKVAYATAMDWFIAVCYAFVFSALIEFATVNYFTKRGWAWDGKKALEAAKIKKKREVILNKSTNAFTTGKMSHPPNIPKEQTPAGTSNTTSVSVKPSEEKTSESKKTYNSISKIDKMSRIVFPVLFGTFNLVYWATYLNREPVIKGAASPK
The experiment in a line: Displacement of [3H]-Ro 15-1788 from Homo sapiens (human) recombinant GABAA alpha5beta3gamma2 receptor expressed in Ltk- cells after 1 hr by liquid scintillation counting. It is filed as cell-based.

GABA-A receptor; alpha-6/beta-3/gamma-2, sequence (Q16445 whole entry, one chain of several): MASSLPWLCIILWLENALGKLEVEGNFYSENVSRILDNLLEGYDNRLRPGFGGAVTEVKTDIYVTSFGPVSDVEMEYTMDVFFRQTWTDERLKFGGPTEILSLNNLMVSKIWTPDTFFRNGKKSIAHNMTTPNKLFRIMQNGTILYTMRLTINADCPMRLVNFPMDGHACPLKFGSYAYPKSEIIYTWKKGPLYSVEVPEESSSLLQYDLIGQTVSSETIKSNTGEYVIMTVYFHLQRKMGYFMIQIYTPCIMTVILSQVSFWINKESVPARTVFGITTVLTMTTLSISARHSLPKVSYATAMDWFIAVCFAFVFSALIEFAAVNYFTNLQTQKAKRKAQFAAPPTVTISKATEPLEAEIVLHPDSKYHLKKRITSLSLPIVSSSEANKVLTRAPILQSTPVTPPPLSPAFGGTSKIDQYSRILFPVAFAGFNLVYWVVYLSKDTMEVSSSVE

For the compound `O=C(OCC(F)(F)F)c1ncn2c1[C@@H]1CCCN1C(=O)c1cc(-c3ccco3)ccc1-2`, the Ki (in general, a dissociation constant, usually derived from enzyme kinetics or from competition with a known ligand) turned out to be 251 nM in assay [1]; 7.1 nM in assay [2]; 52 nM in assay [4]; 55 nM in assay [5]; 51 nM in assay [6]; 10 nM in assay [7]. The Ratio Ki in assay [3] is 0.71.

Values taken from ChEMBL document CHEMBL3045465, “Development of Selective Ligands for Benzodiazepine Receptor Subtypes by Manipulating the Substituents at Positions 3- and 7- of Optically Active BzR Ligands” (Med Chem Res, 2004).
